Read-outs that look alike come from different tables or passages of the source.
Columns and labels:
[1] = target: Beta Secretase enzyme (BACE) (Homo sapiens (Human), UniProt P56817); test: In vitro enzymatic BACE FRET assay; format: biochemical; conditions: read-out: BACE 1 FRET assay IC50
Summary of the method: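 A quenched fluorophore-peptide spanning the BACE cleavage site served as substrate at 50 nM, with one-hour incubation in pH 4.2 acetate buffer containing 100 uM genapol and 10% DMSO final. Fluorescence was measured after quenching with Tris to neutral pH.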

[2] = test system: Aβ40 in conditioned medium of cells stably expressing Amyloid Precursor Protein (APP); test: In vitro BACE cell-based assay (Aβ40 sandwich ELISA); conditions: Homo sapiens
Summary of the method: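 Aβ40 in supernatants was measured by time-resolved fluorescence sandwich ELISA using pAb40 capture and biotinylated 6E10 detection, with antibody incubations at 4 °C. Stable APP cells were exposed to compounds for 24 h in a 10-point series (top dose 100 or 10 µM, 0.1% DMSO). IC50 was fitted from the concentration-response.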

[3] = target: Cathepsin D (Cat D) (Homo sapiens (Human), UniProt P07339); test: In vitro enzymatic Cathepsin D (Cat D) FRET assay; format: biochemical; conditions: read-out: CatD IC50
Chain of Cathepsin D (Cat D) (P07339 65-412, species assumed): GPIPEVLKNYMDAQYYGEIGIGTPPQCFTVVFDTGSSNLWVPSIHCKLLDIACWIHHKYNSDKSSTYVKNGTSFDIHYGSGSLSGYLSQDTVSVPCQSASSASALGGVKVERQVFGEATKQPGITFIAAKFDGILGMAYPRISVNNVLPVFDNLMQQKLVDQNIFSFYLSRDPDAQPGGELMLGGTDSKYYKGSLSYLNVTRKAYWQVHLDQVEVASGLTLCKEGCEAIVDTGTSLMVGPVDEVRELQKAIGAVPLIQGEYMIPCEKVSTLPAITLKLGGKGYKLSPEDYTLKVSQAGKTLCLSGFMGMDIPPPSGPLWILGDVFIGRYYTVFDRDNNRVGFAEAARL
Summary of the method: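 CHO-expressed recombinant Cat D cleaves a fluorophore/quencher FRET peptide (20 nM) in 0.05 M citrate pH 3.5, 5 mM CHAPS, 10% DMSO final, over 1 h. Tris addition neutralizes pH to stop the reaction; fluorescence read at excitation 500 nm, emission 580 nm.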

[4] = HEK293, HEK cells, average, read-out: HEK cell assay IC50
[5] = average IC50, BACE enzyme assay
[6] = HEK293, average IC50, HEK cell assay, read-out: HEK cell assay IC50
[7] = average IC50, cathepsin D enzyme assay
[8] = HEK293, read-out: HEK cell assay IC50
[9] = HEK293, average IC50, HEK cells, read-out: HEK cell assay IC50

Chain of Beta Secretase enzyme (BACE) (P56817 46-501): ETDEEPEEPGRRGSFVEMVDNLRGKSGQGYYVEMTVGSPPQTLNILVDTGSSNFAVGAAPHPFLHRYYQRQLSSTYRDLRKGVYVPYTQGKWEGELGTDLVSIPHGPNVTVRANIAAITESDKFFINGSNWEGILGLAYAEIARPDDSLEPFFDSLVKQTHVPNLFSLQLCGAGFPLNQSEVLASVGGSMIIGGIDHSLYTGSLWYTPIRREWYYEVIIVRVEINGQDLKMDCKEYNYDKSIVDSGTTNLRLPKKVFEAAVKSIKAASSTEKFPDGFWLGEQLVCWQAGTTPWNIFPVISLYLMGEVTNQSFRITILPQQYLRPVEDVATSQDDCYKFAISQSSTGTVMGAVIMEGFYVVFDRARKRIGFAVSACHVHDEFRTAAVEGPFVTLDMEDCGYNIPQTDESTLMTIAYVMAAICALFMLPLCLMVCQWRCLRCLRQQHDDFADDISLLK

SMILES	IC50 ([1]; average)	IC50 [2, 4]	IC50 ([3]; average)	IC50 [1, 5]	IC50 [2, 6]	IC50 [3, 7]	also measured
NC1=N[C@](CF)(c2cc(NC(=O)c3ncc(C(F)F)cc3Cl)ccc2F)C[C@@H](C(F)(F)F)O1 [Example 40, N-(3-((4S,6S)-2-amino-4-(fluoromethyl)-6-(trifluoromethyl)-5,6-dihydro-4H-1,3-oxazin-4-yl)-4-fluorophenyl)-3-chloro-5-(difluoromethyl)picolinamide]	–	–	–	0.13 µM	0.105 µM	> 400 µM	–
NC1=N[C@](CF)(c2cc(Nc3nccc4cn(C(F)F)nc34)ccc2F)C[C@@H](C(F)(F)F)O1 [Example 20, (4S,6S)-4-(5-((2-(difluoromethyl)-2H-pyrazolo[3,4-c]pyridin-7-yl)amino)-2-fluorophenyl)-4-(fluoromethyl)-6-(trifluoromethyl)-5,6-dihydro-4H-1,3-oxazin-2-amine 2,2,2-trifluoroacetate]	–	–	–	33 µM	–	> 400 µM	IC50 [2, 8]: 10.6 µM
NC1=N[C@](CF)(c2cc(C#Cc3ccc(OC4CCC4)cn3)ccc2F)C[C@@H](C(F)(F)F)O1 [Example 128, (4S,6S)-4-(5-((5-cyclobutoxypyridin-2-yl)ethynyl)-2-fluorophenyl)-4-(fluoromethyl)-6-(trifluoromethyl)-5,6-dihydro-4H-1,3-oxazin-2-amine]	20.5 µM	5.98 µM	1060 µM	–	–	–	–
NC1=N[C@](CF)(c2cc(NC(=O)c3ccc(OCC(F)(F)F)cn3)ccc2F)C[C@@H](C(F)(F)F)O1 [Example 5, N-(3-((4S,6S)-2-amino-4-(fluoromethyl)-6-(trifluoromethyl)-5,6-dihydro-4H-1,3-oxazin-4-yl)-4-fluorophenyl)-5-(2,2,2-trifluoroethoxy)picolinamide]	–	–	–	–	–	–	IC50 ([1]; average IC50): 0.043 µM; IC50 [2, 9]: 0.263 µM; IC50 ([3]; average IC50): > 400 µM
NC1=N[C@](CF)(c2cc(NC(=O)c3ccc(C#CC4CC4)cn3)ccc2F)C[C@@H](C(F)(F)F)O1 [Example 53, N-(3-((4S,6S)-2-amino-4-(fluoromethyl)-6-(trifluoromethyl)-5,6-dihydro-4H-1,3-oxazin-4-yl)-4-fluorophenyl)-5-(cyclopropylethynyl)picolinamid]	–	–	–	0.023 µM	0.196 µM	2990 µM	–
NC1=N[C@](CF)(c2cc(Nc3nccc4cc(C#CC5CC5)cnc34)ccc2F)C[C@@H](C(F)(F)F)O1 [Example 55, (4S,6S)-4-(5-((3-(cyclopropylethynyl)-1,7-naphthyridin-8-yl)amino)-2-fluorophenyl)-4-(fluoromethyl)-6-(trifluoromethyl)-5,6-dihydro-4H-1,3-oxazin-2-amine]	–	–	–	0.098 µM	1.02 µM	> 400 µM	–
C#Cc1ccc(-c2ccc(F)c([C@]3(CF)C[C@@H](C(F)(F)F)OC(N)=N3)c2)cn1 [Example 112, (4S,6S)-4-(5-(6-ethynylpyridin-3-yl)-2-fluorophenyl)-4-(fluoromethyl)-6-(trifluoromethyl)-5,6-dihydro-4H-1,3-oxazin-2-amine]	–	–	–	> 40 µM	> 15.6 µM	> 400 µM	–
NC1=N[C@](CF)(c2cc(-c3nc4ccc(Cl)cc4o3)ccc2F)C[C@@H](C(F)(F)F)O1 [Example 105, (4S,6S)-4-(5-(6-chlorobenzo[d]oxazol-2-yl)-2-fluorophenyl)-4-(fluoromethyl)-6-(trifluoromethyl)-5,6-dihydro-4H-1,3-oxazin-2-amine]	–	–	–	0.542 µM	–	> 44.4 µM	IC50 [2, 8]: 2.81 µM
CC(C)n1cc(Cl)c(C(=O)Nc2cnc(F)c([C@]3(C)C[C@@H](C(F)(F)F)OC(N)=N3)c2)n1 [Example 71, N-(5-((4S,6S)-2-amino-4-methyl-6-(trifluoromethyl)-5,6-dihydro-4H-1,3-oxazin-4-yl)-6-fluoropyridin-3-yl)-4-chloro-1-isopropyl-1H-pyrazole-3-carboxamide]	–	–	–	38.9 µM	5.14 µM	> 400 µM	–
NC1=N[C@](CF)(c2cc(Oc3cnccn3)ccc2F)C[C@@H](C(F)(F)F)O1 [Example 92, (4S,6S)-4-(2-fluoro-5-(pyrazin-2-yloxy)phenyl)-4-(fluoromethyl)-6-(trifluoromethyl)-5,6-dihydro-4H-1,3-oxazin-2-amine]	–	–	–	–	–	–	IC50 ([1]; average IC50): 1.64 µM; IC50 [2, 9]: 1.65 µM; IC50 ([3]; average IC50): > 400 µM

Second part, led by results:

IC50 ([1]; average)	IC50 [2, 4]	IC50 ([3]; average)	IC50 [1, 5]	IC50 [2, 6]	IC50 [3, 7]	SMILES	also measured
> 40 µM	> 15.6 µM	> 400 µM	–	–	–	CNC(=O)c1ccnc(C#Cc2ccc(F)c([C@]3(CF)C[C@@H](C(F)(F)F)OC(N)=N3)c2)c1 [Example 129, 2-((3-((4S,6S)-2-amino-4-(fluoromethyl)-6-(trifluoromethyl)-5,6-dihydro-4H-1,3-oxazin-4-yl)-4-fluorophenyl)ethynyl)-N-methylisonicotinamide]	–
0.032 µM	0.028 µM	775 µM	–	–	–	Cc1cc(OC(F)F)cnc1C(=O)Nc1cc(C)c(F)c([C@]2(CF)C[C@@H](C(F)(F)F)OC(N)=N2)c1 [Example 228, N-(3-((4S,6S)-2-amino-4-(fluoromethyl)-6-(trifluoromethyl)-5,6-dihydro-4H-1,3-oxazin-4-yl)-4-fluoro-5-methylphenyl)-5-(difluoromethoxy)-3-methylpicolinamide]	–
–	–	–	0.062 µM	0.123 µM	> 400 µM	COc1ccc(C(=O)Nc2cc(F)c(F)c([C@]3(CF)C[C@@H](C(F)(F)F)OC(N)=N3)c2)nc1 [Example 156, N-(3-((4S,6S)-2-amino-4-(fluoromethyl)-6-(trifluoromethyl)-5,6-dihydro-4H-1,3-oxazin-4-yl)-4,5-difluorophenyl)-5-methoxypicolinamide]	–
–	–	–	> 40 µM	> 15.6 µM	> 133 µM	NC1=N[C@](CF)(c2cc(-c3ccc4cc(F)ccc4n3)ccc2F)C[C@@H](C(F)(F)F)O1 [Example 116, (4S,6S)-4-(2-fluoro-5-(6-fluoroquinolin-2-yl)phenyl)-4-(fluoromethyl)-6-(trifluoromethyl)-5,6-dihydro-4H-1,3-oxazin-2-amine]	–
5.62 µM	2.08 µM	578 µM	–	–	–	NC1=N[C@](CF)(c2cc(C#Cc3cccc4[nH]ccc34)ccc2F)C[C@@H](C(F)(F)F)O1 [Example 130, (4S,6S)-4-(5-((1H-indol-4-yl)ethynyl)-2-fluorophenyl)-4-(fluoromethyl)-6-(trifluoromethyl)-5,6-dihydro-4H-1,3-oxazin-2-amine]	–
2.2 µM	3.1 µM	721 µM	–	–	–	NC1=N[C@](CF)(c2cc(C#Cc3ccc4cc[nH]c4c3)ccc2F)C[C@@H](C(F)(F)F)O1 [Example 132, (4S,6S)-4-(5-((1H-indol-6-yl)ethynyl)-2-fluorophenyl)-4-(fluoromethyl)-6-(trifluoromethyl)-5,6-dihydro-4H-1,3-oxazin-2-amine]	–
> 40 µM	8.17 µM	> 133 µM	–	–	–	NC1=N[C@](CF)(c2cc(Oc3cc(-c4ccccc4)cc(Cl)n3)ccc2F)C[C@@H](C(F)(F)F)O1 [Example 235, (4S,6S)-4-(5-((6-chloro-4-phenylpyridin-2-yl)oxy)-2-fluorophenyl)-4-(fluoromethyl)-6-(trifluoromethyl)-5,6-dihydro-4H-1,3-oxazin-2-amine]	–
0.039 µM	0.01 µM	> 400 µM	–	–	–	C[C@@]1(c2cc(NC(=O)c3ncc(C#N)cc3F)cc(F)c2F)C[C@@H](C(F)(F)F)OC(N)=N1 [Example 205, N-(3-((4S,6S)-2-amino-4-methyl-6-(trifluoromethyl)-5,6-dihydro-4H-1,3-oxazin-4-yl)-4,5-difluorophenyl)-5-cyano-3-fluoropicolinamide]	–

Source: patent US9296734B2 (AMGEN INC., priority 2013, dated 2016)
